Assay [1] has as its target T1, tryptophan 2,3-dioxygenase (TDO) (Homo sapiens, UniProt P48775). The assay is classed as biochemical.
The target of assay [2] is T1, tryptophan 2,3-dioxygenase (TDO). Format: biochemical. The source holds these as a separate data set.

Where two headings read alike, the source gives them in different places.

T1 sequence (P48775 whole entry): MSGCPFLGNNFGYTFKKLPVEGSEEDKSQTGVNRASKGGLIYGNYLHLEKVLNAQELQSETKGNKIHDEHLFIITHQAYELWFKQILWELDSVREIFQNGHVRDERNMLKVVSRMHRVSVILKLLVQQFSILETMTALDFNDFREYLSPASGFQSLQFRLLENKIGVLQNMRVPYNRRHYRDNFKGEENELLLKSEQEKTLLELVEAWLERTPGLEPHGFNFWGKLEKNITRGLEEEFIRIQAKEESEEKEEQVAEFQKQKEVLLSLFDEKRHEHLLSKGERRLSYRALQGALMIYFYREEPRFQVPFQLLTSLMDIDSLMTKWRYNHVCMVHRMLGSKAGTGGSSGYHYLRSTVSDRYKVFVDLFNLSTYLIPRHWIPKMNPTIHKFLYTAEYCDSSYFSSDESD

A word on the Ki: it is the equilibrium dissociation constant of an inhibitor or competing ligand from its target. Low values mean higher affinity, high ones lower affinity. The molecule `CC(Cc1c[nH]c2ccccc12)C(=O)O` (centres unmarked) [compound 1, probe 1] returned an inhibitory constant (Ki) in assay [1] of 320 ± 43 µM. `O=C(O)C(O)Cc1c[nH]c2ccccc12` (centres unmarked) [compound 2, probe 2] gave an inhibitory constant (Ki) in assay [2] of 444 ± 32 µM.

(Values after PMC5874177 (Journal of the American Chemical Society, 2018).)
